Test results: patent US20080176787A1, “Parathyroid hormone analogues and methods of use” (priority 2005, published 2008)
“And” between values parts separate entries of the source, which are not always exact repeats. Equal entries are not always repeated. Where two headings read alike, the source gives them in different places. Positions of bridges follow the written chain, without caps; N, C: chain ends. Residues, ends and D or L forms follow the SMILES beside them.

Assay: Phase II pharmacokinetic evaluation of subcutaneous Ostabolin-C (Baseline and Week 12 subset)
Format: in vivo, human
Design: AUC(0-24): unit: pg·h/mL
Method: The objective of this portion of the study was to evaluate the pharmacokinetics of Ostabolin-C under steady state conditions when given subcutaneously (sc) once a day to post-menopausal female subjects with low bone mineral density.
After Screening procedures and a 2-week placebo run-in phase, subjects were to be dosed once a day for 16 weeks with either Placebo or Ostabolin-C (7.5, 15, 30 or 45 μg). A subset of subjects from all treatment groups had blood collected for measurements of Ostabolin-C in order to determine PK parameters and compare them to prior studies.
The full study duration of the study was 22 weeks, which included a 6-week screening period involving a 2-week placebo run-in and then 16 weeks of treatment. The subset of subjects for this component of the study was treated the same as all other subjects with the exception of the additional blood collections at baseline and Week 12.
All of the values from the Placebo subject except one (Baseline 2 hour time-point) were below the assay level of detection (i.e., 10 pg/ml). With very limited exceptions, all values from Placebo subjects in prior trials have also been below the levels of detection. Thus, this one value was considered to be a laboratory error and PK parameters for this placebo subject were not calculated.
No samples were obtained for Pre-dose at either Baseline or Week 12. In all prior studies, pre-treatment values have been below the levels of detection and 24-hour time points at doses of 40 ug and below have been below the levels of detection. Thus, no observable values were anticipated and for calculating PK the pre-treatment values for Baseline visit were set to zero.
For pre-dose at Week 12, it was also anticipated that the values would be below the levels of detection based on prior studies and that the 24-hour post dose value would verify this. Only two 24-hour time-point values were above the level of detection; i.e. 24 hours post dosing at Baseline for Subject 030-003 and 24 hours post dosing at Week 12 for Subject 030-0004. The values of both of these 24-hour time-points were marginally above the assay level of detection. Also, both of these subjects had values below the levels of detection for both the 4 hour and 6 hour time-points after dosing on the prior day. Thus, these values are most likely artifacts and not real values. No valid 24 hour sample for subject 032-0001 at Week 12 was obtained. […] Thus, for calculating PK parameters, the Pre-dose values for Week 12 were also set to zero.
The pharmacokinetic parameters that were estimated at Baseline and Week 12 are as follows:
AUC values were estimated by a simple summation of trapezoidal areas from each time period. Data from each dose group were summarized using simple statistics on an Excel® spreadsheet; i.e., average (AVG) and Standard Deviation (STD). It should be noted that particularly with the lower doses and associated low blood levels and at late time points, those values just above versus just below the assay limits of detection can have a disproportionate impact to AUC calculations. This adds to that variability of the calculated numbers.

[1] = Baseline, 7.5 ug, individual subjects, in pg·h/mL
[2] = Baseline, 15 ug, individual subjects, in pg·h/mL
[3] = Baseline, 45 ug, individual subjects, in pg·h/mL
[4] = Week 12, 7.5 ug, individual subjects, in pg·h/mL
[5] = Week 12, 30 ug, individual subjects, in pg·h/mL

With `CC[C@H](C)[C@H](NC(=O)[C@H](CCC(=O)O)NC(=O)[C@H](CO)NC(=O)[C@@H](NC(=O)[C@@H](N)CO)C(C)C)C(=O)N[C@@H](CCC(N)=O)C(=O)N[C@@H](CC(C)C)C(=O)N[C@@H](CCSC)C(=O)N[C@@H](Cc1c[nH]cn1)C(=O)N[C@@H](CC(N)=O)C(=O)N[C@@H](CC(C)C)C(=O)NCC(=O)N[C@@H](CCCCN)C(=O)N[C@@H](Cc1c[nH]cn1)C(=O)N[C@@H](CC(C)C)C(=O)N[C@@H](CC(N)=O)C(=O)N[C@@H](CO)C(=O)N[C@@H](CCSC)C(=O)N[C@@H](CCC(=O)O)C(=O)N[C@@H](CCCN=C(N)N)C(=O)N[C@H](C(=O)N[C@H]1CCC(=O)NCCCC[C@@H](C(=O)N[C@@H](CC(C)C)C(=O)N[C@@H](CC(C)C)C(=O)N[C@@H](CCC(N)=O)C(=O)N[C@@H](CC(=O)O)C(=O)N[C@H](C(N)=O)C(C)C)NC(=O)[C@H](CCCN=C(N)N)NC(=O)[C@H](CC(C)C)NC(=O)[C@H](Cc2c[nH]c3ccccc23)NC1=O)C(C)C` [Ostabolin-C, [Leu^27]cyclo[Glu^22-Lys^26]-PTH-(1-31)-NH2] (H-SVSEIQLMHNLGKHLNSMERVEWLRKLLQDV-NH2; lactam 22-26) the Tmax (Baseline, 7.5 ug, individual subjects) was 1.00, the Cmax (Baseline, 7.5 ug, individual subjects, in pg/mL) was 27.75 and 33.15 and the “AUC(0-4)” value [1] was 11.71 and 16.25 and 88.35. The “AUC(0-24)” value [1] was 11.71 and 16.25 and 99.67, the Cmax (Baseline, 15 ug, individual subjects, in pg/mL) was 57.54 and 46.59 and the “AUC(0-4)” value [2] was 82.31 and 74.38. For the same compound, the “AUC(0-24)” value [2] was 82.31 and 74.38, the Cmax (Baseline, 45 ug, individual subjects, in pg/mL) was 114.54 and 233.33 and the “AUC(0-4)” value [3] was 344.39. For the same compound, the “AUC(0-24)” value [3] was 370.47, the Cmax (Week 12, 7.5 ug, individual subjects, in pg/mL) was 37.84 and 40.38 and the “AUC(0-4)” value [4] was 28.83 and 64.83. For the same compound, the “AUC(0-24)” value [4] was 28.83 and 64.83, the “AUC(0-24)” value (Week 12, 15 ug, individual subjects) was 164.36 and 54.29* and 110.80 and the Cmax (Week 12, 15 ug, individual subjects, in pg/mL) was 41.98 and 33.33 and 69.33. The “AUC(0-4)” value (Week 12, 15 ug, individual subjects, in pg·h/mL) was 68.69 and 54.29 and 110.80, the Cmax (Week 12, 30 ug, individual subjects, in pg/mL) was 46.75 and the “AUC(0-4)” value [5] was 142.45 and 70.73. The “AUC(0-24)” value [5] was 214.03, the accumulation (after 12 weeks of dosing) was “no evidence of accumulation” and the Tmax (female, human, blood, sc, 7.5 ug, Baseline, 7.5 ug, AVG, read-out: Tmax) was 30 min. It also gave an AUC(0-t) (female, human, blood, sc, 7.5 ug, Dose 7.5, mean of Baseline and Week 12 data, read-out: AUC(0-4)) of 0.0365 ng·h/mL, an AUC(0-t) (female, human, blood, sc, 7.5 ug, Dose 7.5, mean of Baseline and Week 12 data, read-out: AUC(0-24)) of 0.0384 ng·h/mL and a Cmax (female, human, blood, sc, 7.5 ug, Dose 7.5, mean of Baseline and Week 12 data, read-out: Cmax) of 0.0301 ng/mL. For the same compound, the Tmax (female, human, blood, sc, 7.5 ug, Dose 7.5, mean of Baseline and Week 12 data, read-out: Tmax) was 22.8 min, the AUC(0-t) (female, human, blood, sc, 7.5 ug, Week 12, 7.5 ug, AVG, read-out: AUC(0-4)) was 0.0343 ng·h/mL and the AUC(0-t) (female, human, blood, sc, 7.5 ug, Week 12, 7.5 ug, AVG, read-out: AUC(0-24)) was 0.0343 ng·h/mL. The Cmax (female, human, blood, sc, 7.5 ug, Week 12, 7.5 ug, AVG, read-out: Cmax) was 0.0331 ng/mL, the Tmax (female, human, blood, sc, 7.5 ug, Week 12, 7.5 ug, AVG, read-out: Tmax) was 15 min and the Tmax (female, human, blood, sc, 15 ug, Baseline, 15 ug, AVG, read-out: Tmax) was 19.8 min. For the same compound, the AUC(0-t) (female, human, blood, sc, 15 ug, Dose 15, mean of Baseline and Week 12 data, read-out: AUC(0-4)) was 0.0761 ng·h/mL, the AUC(0-t) (female, human, blood, sc, 15 ug, Dose 15, mean of Baseline and Week 12 data, read-out: AUC(0-24)) was 0.092 ng·h/mL and the Cmax (female, human, blood, sc, 15 ug, Dose 15, mean of Baseline and Week 12 data, read-out: Cmax) was 0.0466 ng/mL. It also gave an AUC(0-t) (female, human, blood, sc, 15 ug, Week 12, 15 ug, AVG, read-out: AUC(0-4)) of 0.0779 ng·h/mL, an AUC(0-t) (female, human, blood, sc, 15 ug, Week 12, 15 ug, AVG, read-out: AUC(0-24)) of 0.11 ng·h/mL and a Cmax (female, human, blood, sc, 15 ug, Week 12, 15 ug, AVG, read-out: Cmax) of 0.0482 ng/mL. For the same compound, the AUC(0-t) (female, human, blood, sc, 30 ug, Dose 30, mean of Baseline and Week 12 data, read-out: AUC(0-4)) was 0.123 ng·h/mL, the AUC(0-t) (female, human, blood, sc, 30 ug, Dose 30, mean of Baseline and Week 12 data, read-out: AUC(0-24)) was 0.129 ng·h/mL and the Cmax (female, human, blood, sc, 30 ug, Dose 30, mean of Baseline and Week 12 data, read-out: Cmax) was 0.0701 ng/mL. It also gave a Tmax (female, human, blood, sc, 30 ug, Dose 30, mean of Baseline and Week 12 data, read-out: Tmax) of 22.8 min, a Tmax (female, human, blood, sc, 45 ug, Baseline, 45 ug, AVG, read-out: Tmax) of 30 min and an AUC(0-t) (female, human, blood, sc, 45 ug, Dose 45, mean of Baseline and Week 12 data, read-out: AUC(0-4)) of 0.22 ng·h/mL. The AUC(0-t) (female, human, blood, sc, 45 ug, Dose 45, mean of Baseline and Week 12 data, read-out: AUC(0-24)) was 0.296 ng·h/mL, the Cmax (female, human, blood, sc, 45 ug, Dose 45, mean of Baseline and Week 12 data, read-out: Cmax) was 0.12 ng/mL and the Tmax (female, human, blood, sc, 45 ug, Dose 45, mean of Baseline and Week 12 data, read-out: Tmax) was 22.8 min. It also gave an AUC(0-t) (female, human, blood, sc, 45 ug, Week 12, 45 ug, AVG, read-out: AUC(0-4)) of 0.0995 ng·h/mL, an AUC(0-t) (female, human, blood, sc, 45 ug, Week 12, 45 ug, AVG, read-out: AUC(0-24)) of 0.171 ng·h/mL and a Cmax (female, human, blood, sc, 45 ug, Week 12, 45 ug, AVG, read-out: Cmax) of 0.0669 ng/mL. The Tmax (female, human, blood, sc, 45 ug, Week 12, 45 ug, AVG, read-out: Tmax) was 15 min.
